Results taken from article PMC11110727, “Exploiting thiol-functionalized benzosiloxaboroles for achieving diverse substitution patterns – synthesis, characterization and biological evaluation of promising antibacterial agents” (RSC Medicinal Chemistry, 2024).
Values after ≈ are worked out from the molar mass of the structure shown. Read-outs that look alike come from different tables or passages of the source.

Tests used:
[1] = tested on: S. aureus NMI 2541 K MRSA; assay: Antibacterial activity against clinical MRSA: MIC/MBC; format: cell-based; conditions: Staphylococcus aureus, NMI 2541 K MRSA; for MIC: read-out: MIC
Method: (§1) Direct antimicrobial activity was determined against the following standard strains: (1) Gram-positive cocci: methicillin-sensitive Staphylococcus aureus ATCC 6538P (MSSA), methicillin-resistant S. aureus subsp. aureus ATCC 43300 (MRSA), S. epidermidis ATCC 12228, Enterococcus faecium ATCC 6057, E. faecalis ATCC 29212, Bacillus subtilis ATCC 6633; (2) Gram-negative bacteria from Enterobacteriales order: Klebsiella pneumoniae ATCC 13883, Escherichia coli ATCC 25922, Enterobacter cloacae DSM 6234, Proteus mirabilis ATCC 12453, Serratia marcescens ATCC 13880; (3) Gram-negative non-fermentative rods: Acinetobacter baumannii ATCC 19606, Pseudomonas aeruginosa ATCC 27853, Stenotrophomonas maltophilia ATCC 12714, S. maltophilia ATCC 13637, Burkholderia cepacia ATCC 25416, Bordetella bronchiseptica ATCC 4617; (4) yeasts: Candida albicans ATCC 90028, C. krusei ATCC 6258, C. parapsilosis ATCC 22019, C. tropicalis (Castellani) Berkhout ATCC 750, C. tropicalis IBA 171, C. guilliermondii IBA 155, and Saccharomyces cerevisiae ATCC 9763. Moreover, 5 clinical strains of methicillin-resistant S. aureus were also included: NMI 664 K, NMI 1576 K, NMI 1712 K, NMI 1991 K, and NMI 2541 K. All strains were stored at −80 °C. Prior to testing, each bacterial strain was subcultured twice on tryptic soy agar TSA (bioMerieux) medium and yeast strains on Sabouraud dextrose agar (bioMerieux) for 24–48 h at 30 °C to ensure viability. The antimicrobial activity was evaluated as previously described[26] by the disc-diffusion method and the MIC determination assays according to the EUCAST (ref. [71] and [72]) and CLSI (ref. [53] and [73]) recommendations. Assessment of bactericidal (MBC) and fungicidal (MFC) activities was performed according to the CLSI recommendations.[54,74] The following reference agents were used: fluconazole (in the case of fungi), linezolid (for Gram-positive bacteria), and nitrofurantoin (for Gram-negative rods). The new benzosiloxaboroles were dissolved in DMSO (Sigma).

S. aureus NMI 664 K MRSA = assay: as above; format: cell-based; conditions: Staphylococcus aureus, NMI 664 K MRSA; for MIC: read-out: MIC
Method: as §1

[2] = tested on: S. aureus NMI 1712 K MRSA; assay: as above; format: cell-based; conditions: Staphylococcus aureus, NMI 1712 K MRSA; for MIC: read-out: MIC
Method: as §1

[3] = tested on: S. aureus NMI 1576 K MRSA; assay: as above; format: cell-based; conditions: Staphylococcus aureus, NMI 1576 K MRSA; for MIC: read-out: MIC
Method: as §1

[4] = tested on: S. aureus NMI 1991 K MRSA; assay: as above; format: cell-based; conditions: Staphylococcus aureus, NMI 1991 K MRSA; for MIC: read-out: MIC
Method: as §1

[5] = tested on: S. epidermidis ATCC 12228; assay: Antibacterial activity: MIC/MBC determination and disc-diffusion; format: cell-based; conditions: Staphylococcus epidermidis, ATCC12228, S. epidermidis ATCC 12228; for MIC: read-out: MIC
Method in brief: (§2)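 CLSI recommendations governed the MBC/MFC determination. MICs and inhibition zones were obtained by EUCAST/CLSI dilution and disc-diffusion methods, with compounds delivered in DMSO.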

E. faecalis ATCC 29212 = assay: as above; format: cell-based; conditions: Enterococcus faecalis, ATCC29212, E. faecalis ATCC 29212; for MIC: read-out: MIC
Method in brief: as §2

E. faecium ATCC 6057 = assay: as above; format: cell-based; conditions: Enterococcus faecium, ATCC6057, E. faecium ATCC 6057; for MIC: read-out: MIC
Method in brief: as §2

[6] = tested on: Human normal lung fibroblasts MRC-5; assay: MTT-based viability (cytotoxicity) assay; conditions: for IC50: Homo sapiens, MRC5, 48 h
Method in brief: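 MRC-5 pd30 human lung fibroblasts in supplemented MEME at 37 °C, 5% CO2; viability by MTT, absorbance 570 nm, triplicate, as percent of control cells. Selectivity index taken as IC50/MIC against S. aureus MRSA strains.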

[7] = tested on: Staphylococcus aureus, MSSA and MRSA strains; assay: Antibacterial activity against S. aureus strains (text summaries); format: cell-based; conditions: for Eagle effect (paradoxical growth) during MBC determination: S. aureus ATCC 6538P and five MRSA clinical strains
Method: as §1

physchem = assay: physchem
Method: 0.1 M NaOH in H2O/MeOH (1 : 1 v/v).
The acidity constants of benzosiloxaboroles 1e, 2e, 6, 20 and 22–24 were determined by standard pH titration with 0.05 M aq. NaOH. The measurements were performed using a thermostated (25.0 °C) glass vessel equipped with a magnetic stirrer and a 10 mL burette. Prior to the measurement, the pH glass electrode was calibrated using borax and phosphate buffers. A solution of the analyzed compound (ca. 20–40 mg) in a mixture of MeOH/H2O (v/v 1 : 1, 30 mL) was titrated until the pH of the solution exceeded the value of 12.0.

[8] = read-out: MBC (first MBC where Eagle effect)
[9] = read-out: second MBC (Eagle effect)
[10] = Staphylococcus aureus, both MSSA and MRSA strains, read-out: MIC values against Staphylococcus aureus

SMILES	MBC [1, 8]	MIC [1]	MBC (S. aureus NMI 664 K MRSA; [8])	MIC (S. aureus NMI 664 K MRSA)	MBC [2, 8]	MIC [2]	MBC [3, 8]	MIC [3]	MBC [4, 8]	MIC [4]	MBC [5]	MIC [5]	MBC (E. faecalis ATCC 29212)	MIC (E. faecalis ATCC 29212)	MIC (E. faecium ATCC 6057)	viability of MRC-5 ([6]; 6.25 µg·mL−1, 48 h)	viability of MRC-5 ([6]; 12.5 µg·mL−1, 48 h)	viability of MRC-5 ([6]; 25 µg·mL−1, 48 h)	viability of MRC-5 ([6]; 50 µg·mL−1, 48 h)	viability of MRC-5 ([6]; 100 µg·mL−1, 48 h)	also measured
C[Si]1(C)OB(O)c2ccc(SCC(=O)c3ccccc3)c(F)c21 [Compound 23, 2-((7-Fluoro-3-hydroxy-1,1-dimethyl-1,3-dihydrobenzo[c][1,2,5]oxasilaborol-6-yl)thio)-1-phenylethan-1-one]	6.25 µg/mL (≈ 18 µM)	1.56 µg/mL (≈ 4.51 µM)	3.12 µg/mL (≈ 9.01 µM)	3.12 µg/mL (≈ 9.01 µM)	25 µg/mL (≈ 72.2 µM)	3.12 µg/mL (≈ 9.01 µM)	6.25 µg/mL (≈ 18 µM)	3.12 µg/mL (≈ 9.01 µM)	3.12 µg/mL (≈ 9.01 µM)	1.56 µg/mL (≈ 4.51 µM)	50 µg/mL (≈ 144 µM)	12.5 µg/mL (≈ 36.1 µM)	200 µg/mL (≈ 578 µM)	50 µg/mL (≈ 144 µM)	50 µg/mL (≈ 144 µM)	99.3±8.4 % of control ± SD	94.3±0.1 % of control ± SD	83.3±4.4 % of control ± SD	85.9±5.1 % of control ± SD	64.2±3.6 % of control ± SD	MBC [1, 9]: 200 µg/mL (≈ 578 µM); MBC (S. aureus NMI 664 K MRSA; [9]): 200 µg/mL (≈ 578 µM); MBC [2, 9]: 200 µg/mL (≈ 578 µM); MBC [3, 9]: 100 µg/mL (≈ 289 µM); MBC [4, 9]: 200 µg/mL (≈ 578 µM); viability of MRC-5 ([6]; 200 µg·mL−1, 48 h): 32.0±0.3 % of control ± SD; viability of MRC-5 ([6]; 400 µg·mL−1, 48 h): 1.0±1.3 % of control ± SD; IC50 [6]: 126 µg/mL (≈ 364 µM); Eagle effect (paradoxical growth) during MBC determination [7]: Eagle effect; MIC [7, 10]: 1.56 to 12.5 µg/mL (≈ 4.51 to 36.1 µM); MIC ([7]; Staphylococcus aureus, standard and five clinical MRSA strains (Table 4), read-out: MIC (MRSA)): 1.56 to 3.12 µg/mL (≈ 4.51 to 9.01 µM); pKa (physchem): 6.3
COC(=O)CCSc1ccc2c(c1F)[Si](C)(C)OB2O [Compound 4, Methyl 3-((7-fluoro-3-hydroxy-1,1-dimethyl-1,3-dihydrobenzo[c][1,2,5]oxasilaborol-6-yl)thio)propanoate]												25 µg/mL (≈ 79.6 µM)		200 µg/mL (≈ 636 µM)	100 µg/mL (≈ 318 µM)						Eagle effect (paradoxical growth) during MBC determination [7]: Eagle effect
C[Si]1(C)OB(O)c2cc(F)c(S)c(F)c21 [Compound 1e, 5,7-Difluoro-6-mercapto-1,1-dimethylbenzo[c][1,2,5]oxasilaborol-3(1H)-ol]											50 µg/mL (≈ 203 µM)	1.56 µg/mL (≈ 6.34 µM)	100 µg/mL (≈ 406 µM)	12.5 µg/mL (≈ 50.8 µM)	12.5 µg/mL (≈ 50.8 µM)						MBC (E. faecium ATCC 6057): 400 µg/mL (≈ 1630 µM); MBC ([7]; Staphylococcus aureus, lowest MBC values): 25 to 50 µg/mL (≈ 102 to 203 µM)
C[Si]1(C)OB(O)c2cc(F)c(SC3CC(=O)NC3=O)c(F)c21 (stereo not drawn) [Compound 12, 3-((5,7-Difluoro-3-hydroxy-1,1-dimethyl-1,3-dihydrobenzo[c][1,2,5]oxasilaborol-6-yl)thio)pyrrolidine-2,5-dione]	200 µg/mL (≈ 583 µM)	12.5 µg/mL (≈ 36.4 µM)	200 µg/mL (≈ 583 µM)	12.5 µg/mL (≈ 36.4 µM)	200 µg/mL (≈ 583 µM)	12.5 µg/mL (≈ 36.4 µM)	100 µg/mL (≈ 291 µM)	6.25 µg/mL (≈ 18.2 µM)	100 µg/mL (≈ 291 µM)	12.5 µg/mL (≈ 36.4 µM)	400 µg/mL (≈ 1170 µM)	6.25 µg/mL (≈ 18.2 µM)		25 µg/mL (≈ 72.8 µM)	12.5 µg/mL (≈ 36.4 µM)	103.0±1.5 % of control ± SD	104.4±1.9 % of control ± SD	94.9±2.3 % of control ± SD	86.1±6.9 % of control ± SD	76.4±3.5 % of control ± SD	viability of MRC-5 ([6]; 200 µg·mL−1, 48 h): 46.9±2.7 % of control ± SD; viability of MRC-5 ([6]; 400 µg·mL−1, 48 h): 0.4±0.2 % of control ± SD; IC50 [6]: 167 µg/mL (≈ 488 µM); MIC [7, 10]: 1.56 to 12.5 µg/mL (≈ 4.55 to 36.4 µM)
